Data on one molecule can be found in publication PMC10307035, “Antiviral activity of singlet oxygen-photogenerating perylene compounds against SARS-CoV-2: Interaction with the viral envelope and photodynamic virion inactivation” (Virus Research, 2023).

Each structure is given as a SMILES string.

The subject of data set [1] is feline infectious peritonitis virus (FIPV). The format is cell-based, feline coronavirus (FCoV). The following applies: 0–10 µM.
Data set [2] deals with CaCo-2 cells. Nature of the data set: Cytotoxicity assay (Cell Counting Kit-8) in CaCo-2 cells. The format is cell-based, human. As to conditions: up to 10 µM. As for the experimental part:
To determine the overall cytotoxicity of the tested compounds, Vero cells were cultured for 24 h in 96-well plates to form a confluent monolayer, and then were treated with the tested compounds at concentrations of 2 and 10 µM. After 48 h of cultivation in the dark at 37 °C under 5% CO2, the cell culture medium was aspirated. The potential cytotoxicity of the tested perylene derivatives was determined based on cell viability using Cell Counting Kit-8 (Dojindo Molecular Technologies, Munich, Germany) according to the manufacturer's instructions. The cell viabilities of compound-treated Vero cells were compared with those of control DMSO-treated cells. We also used the above-described protocol to assess the cytotoxicity of the selected perylene antivirals, at concentrations ranging from 0 to 10 µM, in CaCo-2 and CRFK cells.

Data set [3] concerns SARS-CoV-2. Description: Photodynamic inactivation of SARS-CoV-2 virions. The format is cell-based. As for the experimental part: Virus in DMEM (titer of 10^5 PFU/mL) was mixed with the compounds (0–10 µM) in a microtiter plate, in triplicate, and irradiated for 10 min at RT with LEDs (465–480 nm) having an approximate power density of 30 mW/cm^2 (device description in supplement). As a negative control, virus was incubated for 10 min in the dark at RT. Subsequently, both irradiated and non-irradiated virus samples were incubated in the dark at 37 °C for 60 min. All manipulation with the samples before and after this incubation, i.e., mixing the compound with the virus, pipetting into a microtiter plate, etc., were performed in daylight. Viral titers were determined by plaque assays (performed also in daylight) and expressed as PFU/mL, as previously described ([Stefanik et al., 2021]). To eliminate the influence of daylight on compound activity, the whole experiment, including all manipulation with samples, was performed in a dark room under red light. The virus sample was mixed with the indicated compounds at concentrations from 0 to 10 μM or 100 μM, incubated for 60 min at 37 °C and virus viability was evaluated using a plaque assay (Fig. 9A).

For data set [4], the system named is CaCo-2 cells. Description: Cellular stress marker expression by RT-qPCR in CaCo-2 cells. The format is cell-based, human. As for the experimental part: RT-qPCR was performed to evaluate changes in the gene expression of cellular stress markers. […] Previous publications report the primer sequences and numbers of the Universal Probe Library (UPL; Roche Life Sciences, Germany) used for detection of ATF3, CDKN1A (p21), CYP1A1, DDIT3, HMOX1, HSPA1B (HSP70), and HSPA5 mRNAs ([Procházková et al., 2018]; [Šimečková et al., 2020]). […] TaqMan™ Gene Expression Assays (Thermo Fisher Scientific, Waltham, MA, USA) were used to determine the levels of FGF21 (Hs00173927_m1), GADD45A (Hs00169255_m1), GDF15 (Hs00171132_m1), and SRXN1 (Hs00607800_m1). The amplification was run in a 10-µL reaction mixture containing 1 µL of sample, using Kapa Probe Fast One-Step (Kapa Biosystems Pty, Cape Town, South Africa) on a LightCycler® 480 System (Roche Diagnostics, Czech Republic) using the previously published sequence ([Procházková et al., 2018]). Reference gene qPCR assays (Generi Biotech, Hradec Králové, Czech Republic) were used for the following housekeeping genes: human β2-Microglobulin (B2M; #3030), hydroxymethylbilane synthase (HMBS; #3032), and RNA polymerase II subunit A (POLR2A; #3035). We used an average of three reference gene Cp values to calculate the change in gene expression using the comparative threshold cycle method ([Schmittgen and Livak, 2008]).
For orientation: Quantitative PCR measures a nucleic acid by following its amplification.

Data set [5] is described as follows: ROS generation measurement with DMA trap in DMSO. Type of data set: physicochemical. Summed up:
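DMA (0.5 µM) singlet-oxygen trap mixed with compounds at 0, 0.1, 1 and 10 µM in DMSO, then irradiated 10 min at RT with 465–480 nm LED (~30 mW/cm^2). Fluorescence read at ex/em 370/432 nm with or without α-tocopherol (3 µg/mL); ROS generation indicated by loss of DMA signal.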

Take `CC(C)(C)C(=O)OCn1c(=O)c(C#Cc2ccc3c4cccc5cccc(c6cccc2c63)c54)cn(CC(=O)N(CCO)CCO)c1=O` [Compound 13]: the “replication of FIPV in CRFK cells” value in data set [1] is listed as “potently suppressed the replication”. Also, the “tolerability by CaCo-2 cells” value in data set [2] was “well-tolerated”. Also, the “antiviral effect under red light only” value in data set [3] (100 µM, dark room, red light, 60 min at 37 °C) is recorded as “no antiviral effect”. Further, the “antiviral activity after blue light irradiation of virus-compound mixture” value in data set [3] (465–480 nm, 30 mW/cm^2, 10 min, then 60 min at 37 °C in the dark, plaque assay) was “low-nanomolar”. Moreover, the “antiviral activity under red light only” value in data set [3] (up to 10 µM, dark room, red light, 60 min at 37 °C) was “completely disappeared”. In addition, in data set [4] (CaCo-2 cells, 10 µM, all tested incubation periods), the CYP1A1 expression result is listed as “significantly decreased”. Besides, in data set [4] (CaCo-2 cells, 5, 24 and 48 h), the “expression of HMOX1, SRXN1, TXNRD1 (oxidative stress)” value is recorded as “did not increase”; the “expression of HSPA5, DDIT3, HSPA1B (HSP70), CDKN1A (p21), GADD45A” value is given as “no changes”; the “expression of early toxicity markers (ATF3, FGF21, GDF15)” value is reported as “did not induce”. Also, the “ROS generation, DMA trap, under blue light” value in data set [5] (465–480 nm, 30 mW/cm^2, 10 min) is “significant bleaching”. Further, the “ROS generation, DMA trap, in the dark or with α-tocopherol” value in data set [5] (10 min, dark or α-tocopherol (3 µg/mL)) is “no/limited bleaching”.
